Experimental data as given in the supplement of paper PMC13380429.

Experiments:
Settings in all cases: 72 h
[1] = tested on: Vero E6; assay: cell viability relative to DMSO; higher = less toxic
[2] = tested on: U2OS; assay: as above
[3] = tested on: Calu-3; assay: as above
[4] = tested on: HepG2; assay: as above
[5] = tested on: Caco-2; assay: as above
[6] = tested on: Vero E6; assay: relative viability EC50 (midpoint between 100% and the lowest measured viability); higher = less toxic
[7] = tested on: U2OS; assay: as above
[8] = tested on: Calu-3; assay: as above
[9] = tested on: HepG2; assay: as above
[10] = tested on: Caco-2; assay: as above
[11] = tested on: Vero E6; assay: drug sensitivity score (DSS) for viability; higher = more toxic; extreme values may be limits of the assay
[12] = tested on: U2OS; assay: as above
[13] = tested on: Calu-3; assay: as above
[14] = tested on: HepG2; assay: as above
[15] = tested on: Caco-2; assay: as above

| SMILES | cell viability ([1]; 1 nM) [%] | cell viability ([1]; 10 nM) [%] | cell viability ([1]; 100 nM) [%] | cell viability ([1]; 1000 nM) [%] | cell viability ([1]; 10000 nM) [%] | cell viability ([2]; 1 nM) [%] | cell viability ([2]; 10 nM) [%] | cell viability ([2]; 100 nM) [%] | cell viability ([2]; 1000 nM) [%] | cell viability ([2]; 10000 nM) [%] | cell viability ([3]; 1 nM) [%] | cell viability ([3]; 10 nM) [%] | cell viability ([3]; 100 nM) [%] | cell viability ([3]; 1000 nM) [%] | cell viability ([3]; 10000 nM) [%] | cell viability ([4]; 1 nM) [%] | cell viability ([4]; 10 nM) [%] | cell viability ([4]; 100 nM) [%] | cell viability ([4]; 1000 nM) [%] | cell viability ([4]; 10000 nM) [%] | cell viability ([5]; 1 nM) [%] | cell viability ([5]; 10 nM) [%] | cell viability ([5]; 100 nM) [%] | cell viability ([5]; 1000 nM) [%] | cell viability ([5]; 10000 nM) [%] | relative viability EC50 [6] [µM] | relative viability EC50 [7] [µM] | relative viability EC50 [8] [µM] | relative viability EC50 [9] [µM] | relative viability EC50 [10] [µM] | drug sensitivity score [11] | drug sensitivity score [12] | drug sensitivity score [13] | drug sensitivity score [14] | drug sensitivity score [15] |
| --- | --- | --- | --- | --- | --- | --- | --- | --- | --- | --- | --- | --- | --- | --- | --- | --- | --- | --- | --- | --- | --- | --- | --- | --- | --- | --- | --- | --- | --- | --- | --- | --- | --- | --- | --- |
| O=C(/C=C/c1ccc(CN(CCO)CCc2c[nH]c3ccccc23)cc1)NO [dacinostat] | 108 | 103 | 47.8 | -0.4 | -0.3 | 98.1 | 101 | 66.4 | 1.3 | 0.5 | 98.7 | 90.1 | 56.5 | 11.3 | 5.5 | 104 | 82 | 26.1 | -0.4 | -0.4 | 96.5 | 101 | 38.7 | 0.3 | 0.8 | 0.0966 | 0.131 | 0.109 | 0.0395 | 0.083 | 24.4 | 22.6 | 21.5 | 28.4 | 25.2 |
| C[C@@H]1C[C@H]2[C@@H]3CCC4=CC(=O)C=C[C@]4(C)[C@@]3(F)[C@@H](O)C[C@]2(C)[C@H]1C(=O)CO [desoximetasone] | 93 | 91.3 | 93.2 | 88.5 | 99 | 98.3 | 97.2 | 91.9 | 92.9 | 101 | 86.2 | 95 | 101 | 101 | 88.8 | 102 | 95.7 | 102 | 91.3 | 109 | 94.1 | 90.1 | 88 | 95.2 | 105 | > 10 | > 10 | > 10 | > 10 | > 10 | 0 | 0 | 0 | 0 | 0 |
| CCCCCN(CCCOC)C(=O)[C@@H](CCC(=O)O)NC(=O)c1ccc(Cl)c(Cl)c1 [dexloxiglumide] | 89.4 | 97.8 | 91.1 | 96.1 | 109 | 92.2 | 92.1 | 99.5 | 91.9 | 104 | 100 | 93.3 | 96.4 | 95.7 | 93 | 94.5 | 105 | 89.6 | 104 | 108 | 92.1 | 82.1 | 87.5 | 86.9 | 107 | > 10 | > 10 | > 10 | > 10 | > 10 | 0 | 0 | 0 | 0 | 0.1 |
| CN1C(=O)CN=C(c2ccccc2)c2cc(Cl)ccc21 [diazepam] | 97.8 | 100 | 101 | 98.6 | 86.7 | 107 | 102 | 107 | 99.6 | 103 | 110 | 92.4 | 96.6 | 98 | 110 | 94.8 | 105 | 101 | 100 | 101 | 104 | 101 | 85.6 | 87.6 | 96 | > 10 | > 10 | > 10 | > 10 | > 10 | 0.2 | 0 | 0 | 0 | 2.2 |
| NS(=O)(=O)c1cc(Cl)c(Cl)c(S(N)(=O)=O)c1 [diclofenamide] | 95.8 | 102 | 96 | 99.1 | 95.3 | 102 | 98 | 106 | 98.7 | 105 | 88.2 | 81.4 | 87.1 | 91 | 88.9 | 97.6 | 103 | 100 | 97 | 101 | 102 | 104 | 112 | 104 | 98.9 | > 10 | > 10 | > 10 | > 10 | > 10 | 0 | 0 | 0 | 0 | 0 |
| C/C=C(/C(=C/C)c1ccc(O)cc1)c1ccc(O)cc1 [dienestrol] | 101 | 107 | 101 | 104 | 94.3 | 106 | 108 | 107 | 99.9 | 109 | 98.1 | 91.4 | 92.4 | 84 | 95.7 | 101 | 100 | 98.4 | 110 | 95.3 | 112 | 96.5 | 105 | 106 | 102 | > 10 | > 10 | > 10 | > 10 | > 10 | 0 | 0 | 0 | 0 | 0 |
| CC/C=C\C/C=C\C/C=C\C/C=C\C/C=C\C/C=C\CCC(=O)OCC [doconexent-ethyl-ester] | 99.5 | 101 | 98.9 | 102 | 102 | 93.6 | 96.9 | 97.3 | 103 | 99.8 | 99.1 | 104 | 104 | 103 | 108 | 100 | 98.9 | 87.1 | 107 | 87.2 | 96.9 | 108 | 96.1 | 96.5 | 100 | > 10 | > 10 | > 10 | > 10 | > 10 | 0 | 0 | 0 | 0 | 0 |
